# Read-outs that look alike come from different tables or passages of the source.
# What was measured:
# Sphaerotheca fuliginea = assay: Sphaerotheca test (cucumbers)/preventive, evaluated 7 days after the inoculation; assay type: in vivo
# Venturia inaequalis = assay: Venturia test (apples)/preventive, evaluated 10 days after the inoculation
# Method: After the spray coating has dried on, the plants are inoculated with an aqueous conidia suspension of the causal agent of apple scab (Venturia inaequalis) and then remain for 1 day in an incubation cabinet at approximately 20° C. and a relative atmospheric humidity of 100%. The plants are then placed in a greenhouse at approximately 21° C. and a relative atmospheric humidity of approximately 90%.
# The test is evaluated 10 days after the inoculation.
# Botrytis cinerea = assay: Botrytis test (beans)/preventive, size of the lesions 2 days after the inoculation; details: Table 17
# Method: After the spray coating has dried on, 2 small pieces of agar covered with growth of Botrytis cinerea are placed on each leaf. The inoculated plants are placed in a darkened chamber at 20° C. and a relative atmospheric humidity of 100%.
# 2 days after the inoculation, the size of the lesions on the leaves is evaluated.
# Alternaria solani = assay: Alternaria test (tomatoes)/preventive, evaluated 3 days after the inoculation; assay type: in vivo
# Phytophthora infestans = assay type: in vivo
# [1] = tested on: Blumeria graminis fsp. hordei; assay: Blumeria test (barley)/preventive, evaluated 7 days after the inoculation; assay type: in vivo
# Puccinia triticina = assay: Puccinia triticina-test (wheat)/preventive, evaluated 8 days after the inoculation; assay type: in vivo
# Pyrenophora teres = assay: Pyrenophora teres-test (barley)/preventive, evaluated 8 days after the inoculation; assay type: in vivo
# Septoria tritici = assay: Septoria tritici-test (wheat)/preventive, evaluated 21 days after the inoculation; assay type: in vivo
compound,measurement,setting,value
flutolanil [F71],Efficacy in % found,"Sphaerotheca fuliginea; Table 30, 100 ppm a.i.",20%
same,Efficacy in % found,"Venturia inaequalis; Table 31, 50 ppm a.i.",0%
same,Efficacy in % found,Botrytis cinerea; 250 ppm a.i.,30%
fenamidone [F114],Efficacy in % found,"Alternaria solani; Table 13, 50 ppm a.i.",62%
same,Efficacy in % found,"Phytophthora infestans; Table 20, 1 ppm a.i.",41%
same,Efficacy in % found,"Sphaerotheca fuliginea; Table 28, 100 ppm a.i.",21%
same,Efficacy in % found,"Venturia inaequalis; Table 32, 50 ppm a.i.",0%
"CO/C=C(/C(=O)OC)c1ccccc1Oc1cc(Oc2ccccc2C#N)ncn1 [F107, azoxystrobin]",Efficacy in % found,"Alternaria solani; Table 13, 2 ppm a.i.",41%
same,Efficacy in % found,"[1]; Table 15, 31.25 ppm a.i.",10%
same,Efficacy in % found,"Puccinia triticina; Table 22, 7.8125 ppm a.i.",67%
same,Efficacy in % found,"Pyrenophora teres; Table 25, 15.625 ppm a.i.",60%
same,Efficacy in % found,"Pyrenophora teres; Table 25, 31.25 ppm a.i.",90%
same,Efficacy in % found,"Septoria tritici; Table 26, 15.625 ppm a.i.",13%
same,Efficacy in % found,"Septoria tritici; Table 26, 31.25 ppm a.i.",50%
same,Efficacy in % found,"Sphaerotheca fuliginea; Table 28, 0.5 ppm a.i.",37%
same,Efficacy in % found,"Venturia inaequalis; Table 32, 0.5 ppm a.i.",84%
mancozeb [F174],Efficacy in % found,"Phytophthora infestans; Table 21, 20 ppm a.i.",0%
same,Efficacy in % found,"Sphaerotheca fuliginea; Table 29, 20 ppm a.i.",0%
same,Efficacy in % found,"Venturia inaequalis; Table 33, 10 ppm a.i.",0%
"Cc1nn(C)c(F)c1C(=O)Nc1ccccc1C(C)CC(C)C (stereo not shown) [F84, penflufen]",Efficacy in % found,"Phytophthora infestans; Table 19, 100 ppm a.i.",8%
same,Efficacy in % found,"Puccinia triticina; Table 22, 31.25 ppm a.i.",67%
same,Efficacy in % found,"Pyrenophora teres; Table 25, 62.5 ppm a.i.",70%
same,Efficacy in % found,"Pyrenophora teres; Table 25, 125 ppm a.i.",60%
same,Efficacy in % found,"Sphaerotheca fuliginea; Table 29, 0.5 ppm a.i.",0%
same,Efficacy in % found,"Venturia inaequalis; Table 31, 0.5 ppm a.i.",0%
spiroxamine [F46],Efficacy in % found,"Alternaria solani; Table 14, 50 ppm a.i.",46%
same,Efficacy in % found,"[1]; Table 16, 125 ppm a.i.",11%
same,Efficacy in % found,"Sphaerotheca fuliginea; Table 30, 100 ppm a.i.",30%
same,Efficacy in % found,"Venturia inaequalis; Table 31, 50 ppm a.i.",0%
same,Efficacy in % found,Botrytis cinerea; 100 ppm a.i.,14%
"O=C(NCc1ncc(C(F)(F)F)cc1Cl)c1c(Cl)cccc1Cl [F143, fluopicolide]",Efficacy in % found,"Phytophthora infestans; Table 20, 5 ppm a.i.",21%
same,Efficacy in % found,"Venturia inaequalis; Table 32, 50 ppm a.i.",0%
phosphorous acid and its salts [F298],Efficacy in % found,"Phytophthora infestans; Table 20, 500 ppm a.i.",76%
same,Efficacy in % found,"Venturia inaequalis; Table 32, 50 ppm a.i.",0%
tebuconazole [F47],Efficacy in % found,"Alternaria solani; Table 12, 2 ppm a.i.",35%
same,Efficacy in % found,"[1]; Table 16, 31.25 ppm a.i.",78%
same,Efficacy in % found,"Phytophthora infestans; Table 19, 100 ppm a.i.",15%
same,Efficacy in % found,"Puccinia triticina; Table 23, 31.25 ppm a.i.",30%
same,Efficacy in % found,"Puccinia triticina; Table 23, 62.5 ppm a.i.",60%
same,Efficacy in % found,"Septoria tritici; Table 27, 125 ppm a.i.",57%
same,Efficacy in % found,"Venturia inaequalis; Table 31, 1 ppm a.i.",0%
difenoconazole [F7],Efficacy in % found,"Alternaria solani; Table 12, 2 ppm a.i.",30%
same,Efficacy in % found,"[1]; Table 16, 62.5 ppm a.i.",44%
same,Efficacy in % found,"[1]; Table 16, 125 ppm a.i.",67%
same,Efficacy in % found,"Phytophthora infestans; Table 19, 100 ppm a.i.",0%
same,Efficacy in % found,"Puccinia triticina; Table 23, 31.25 ppm a.i.",30%
same,Efficacy in % found,"Puccinia triticina; Table 23, 62.5 ppm a.i.",60%
same,Efficacy in % found,"Sphaerotheca fuliginea; Table 29, 1 ppm a.i.",0%
same,Efficacy in % found,"Venturia inaequalis; Table 31, 1 ppm a.i.",38%
propineb [F180],Efficacy in % found,"Phytophthora infestans; Table 21, 20 ppm a.i.",8%
same,Efficacy in % found,"Sphaerotheca fuliginea; Table 29, 20 ppm a.i.",0%
same,Efficacy in % found,"Venturia inaequalis; Table 33, 10 ppm a.i.",81%
chlorothalonil [F155],Efficacy in % found,"Phytophthora infestans; Table 21, 20 ppm a.i.",0%
same,Efficacy in % found,"Pyrenophora teres; Table 24, 250 ppm a.i.",50%
same,Efficacy in % found,"Septoria tritici; Table 27, 125 ppm a.i.",57%
same,Efficacy in % found,"Venturia inaequalis; Table 33, 10 ppm a.i.",4%
"N#Cc1ccccc1NC(=O)c1snc(Cl)c1Cl [F187, isotianil]",Efficacy in % found,"Alternaria solani; Table 14, 50 ppm a.i.",18%
same,Efficacy in % found,"Septoria tritici; Table 27, 250 ppm a.i.",29%
same,Efficacy in % found,"Septoria tritici; Table 27, 500 ppm a.i.",29%
same,Efficacy in % found,"Sphaerotheca fuliginea; Table 30, 100 ppm a.i.",20%
same,Efficacy in % found,"Venturia inaequalis; Table 31, 50 ppm a.i.",0%
same,Efficacy in % found,Botrytis cinerea; 125 ppm a.i.,40%
"C#CCOc1ccc(CCNC(=O)C(OCC#C)c2ccc(Cl)cc2)cc1OC (stereo not shown) [F206, mandipropamid]",Efficacy in % found,"Phytophthora infestans; Table 20, 0.25 ppm a.i.",47%
same,Efficacy in % found,"Sphaerotheca fuliginea; Table 28, 100 ppm a.i.",13%
fosetyl-aluminium [F281],Efficacy in % found,"Alternaria solani; Table 13, 50 ppm a.i.",15%
same,Efficacy in % found,"Phytophthora infestans; Table 20, 50 ppm a.i.",55%
same,Efficacy in % found,"Sphaerotheca fuliginea; Table 28, 100 ppm a.i.",13%
same,Efficacy in % found,"Venturia inaequalis; Table 32, 50 ppm a.i.",0%
fenhexamid [F16],Efficacy in % found,"Alternaria solani; Table 14, 50 ppm a.i.",50%
same,Efficacy in % found,"Phytophthora infestans; TABLE 17 (Phytophthora), 100 ppm a.i.",0%
same,Efficacy in % found,"Sphaerotheca fuliginea; Table 30, 100 ppm a.i.",0%
same,Efficacy in % found,"Venturia inaequalis; Table 31, 25 ppm a.i.",0%
"Cn1cc(C(=O)Nc2ccccc2-c2cc(F)c(F)c(F)c2)c(C(F)F)n1 [F72, fluxapyroxad]",Efficacy in % found,"Alternaria solani; Table 12, 0.5 ppm a.i.",45%
same,Efficacy in % found,"[1]; Table 15, 31.25 ppm a.i.",0%
same,Efficacy in % found,"Phytophthora infestans; Table 19, 100 ppm a.i.",0%
same,Efficacy in % found,"Puccinia triticina; Table 22, 15.625 ppm a.i.",22%
same,Efficacy in % found,"Puccinia triticina; Table 22, 31.25 ppm a.i.",22%
same,Efficacy in % found,"Pyrenophora teres; Table 25, 15.625 ppm a.i.",80%
same,Efficacy in % found,"Pyrenophora teres; Table 25, 31.25 ppm a.i.",90%
same,Efficacy in % found,"Septoria tritici; Table 26, 31.25 ppm a.i.",13%
same,Efficacy in % found,"Venturia inaequalis; Table 31, 0.25 ppm a.i.",0%
fludioxonil [F248],Efficacy in % found,"Sphaerotheca fuliginea; Table 30, 100 ppm a.i.",30%
same,Efficacy in % found,"Venturia inaequalis; Table 31, 50 ppm a.i.",0%
same,Efficacy in % found,Botrytis cinerea; 2.5 ppm a.i.,26%
prothioconazole [F41],Efficacy in % found,"Alternaria solani; Table 12, 2 ppm a.i.",0%
same,Efficacy in % found,"Phytophthora infestans; Table 19, 100 ppm a.i.",45%
same,Efficacy in % found,"Sphaerotheca fuliginea; Table 29, 1 ppm a.i.",43%
same,Efficacy in % found,"Venturia inaequalis; Table 31, 1 ppm a.i.",0%
propamocarb hydrochloride [F220],Efficacy in % found,"Alternaria solani; Table 14, 250 ppm a.i.",12%
same,Efficacy in % found,"Phytophthora infestans; TABLE 17 (Phytophthora), 500 ppm a.i.",7%
same,Efficacy in % found,"Sphaerotheca fuliginea; Table 30, 500 ppm a.i.",10%
same,Efficacy in % found,"Venturia inaequalis; Table 31, 250 ppm a.i.",0%
"COCC(=O)N(c1c(C)cccc1C)[C@H](C)C(=O)OC [F242, metalaxyl-M (mefenoxam)]",Efficacy in % found,"Sphaerotheca fuliginea; Table 28, 100 ppm a.i.",13%
same,Efficacy in % found,"Venturia inaequalis; Table 32, 50 ppm a.i.",0%

# Reference: US20140228214A1, “COMPOSITIONS COMPRISING A STREPTOMYCES-BASED BIOLOGICAL CONTROL AGENT AND A FUNGICIDE” (BAYER CROPSCIENCE LP, priority 2013, published 2014)
